Test results from BindingDB's records for doi:10.1124/mol.105.012005 (Wyeth Research, 2005).
pIC50: −log10 of the molar value.

Assays:
[1] = target: T1, Excitatory amino acid transporter 3 (Homo sapiens, UniProt P43005)
T1 sequence (P43005 whole entry): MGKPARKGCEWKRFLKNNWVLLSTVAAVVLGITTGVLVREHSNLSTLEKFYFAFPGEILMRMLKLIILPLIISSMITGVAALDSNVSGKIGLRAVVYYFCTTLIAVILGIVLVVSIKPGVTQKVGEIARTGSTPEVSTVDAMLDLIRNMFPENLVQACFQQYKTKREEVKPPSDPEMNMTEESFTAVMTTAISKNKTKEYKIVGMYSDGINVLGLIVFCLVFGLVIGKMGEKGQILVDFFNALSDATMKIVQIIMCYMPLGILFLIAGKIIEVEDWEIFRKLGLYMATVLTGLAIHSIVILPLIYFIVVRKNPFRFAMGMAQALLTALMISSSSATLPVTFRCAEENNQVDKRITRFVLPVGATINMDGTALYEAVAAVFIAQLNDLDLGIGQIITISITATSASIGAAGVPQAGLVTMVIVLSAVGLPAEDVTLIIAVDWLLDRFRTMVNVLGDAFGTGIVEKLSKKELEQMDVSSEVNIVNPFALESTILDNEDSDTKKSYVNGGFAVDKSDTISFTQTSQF

[2] = target: Excitatory amino acid transporter 1 (Homo sapiens, UniProt P43003)
Excitatory amino acid transporter 1, sequence (P43003 whole entry): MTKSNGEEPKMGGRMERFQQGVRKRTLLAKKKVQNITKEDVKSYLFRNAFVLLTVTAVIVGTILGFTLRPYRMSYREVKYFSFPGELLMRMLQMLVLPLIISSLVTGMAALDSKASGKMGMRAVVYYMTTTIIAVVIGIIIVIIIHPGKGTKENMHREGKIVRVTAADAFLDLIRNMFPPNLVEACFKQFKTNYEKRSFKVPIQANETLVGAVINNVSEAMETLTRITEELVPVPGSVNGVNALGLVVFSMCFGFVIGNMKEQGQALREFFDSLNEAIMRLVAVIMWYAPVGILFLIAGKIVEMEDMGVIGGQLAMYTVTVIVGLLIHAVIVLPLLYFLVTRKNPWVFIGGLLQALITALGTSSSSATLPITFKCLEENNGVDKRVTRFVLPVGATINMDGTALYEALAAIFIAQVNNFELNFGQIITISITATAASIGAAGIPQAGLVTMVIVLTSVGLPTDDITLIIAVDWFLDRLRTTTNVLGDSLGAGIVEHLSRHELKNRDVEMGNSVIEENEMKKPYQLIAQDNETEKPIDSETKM

pIC50 [1]	pIC50 [2]	SMILES
5.18	5.71	Cc1ccccc1-c1ccc(NC(=O)C[C@H](N)C(=O)O)cc1 [WAY-213394]
5.84	–	Cc1cc(C(=O)NC[C@H](N)C(=O)O)ccc1-c1ccc(Cl)cc1 [3-[3-Methyl-4-(4-chlorophenyl)benzoylamino]alanine]
5.74	5.47	N[C@@H](CC(=O)Nc1ccc2c(c1)Cc1cc(C(F)(F)F)ccc1-2)C(=O)O [WAY-212922]
